Laboratory results taken from US12391726B2, “Ursolic acid morpholine salt” (EMMYON, INC., priority 2017, dated 2025).
Structures can show the parent of a compound that is named as a salt. Where two headings read alike, the source gives them in different places. Marks after values point to notes of the source that are not given here.

How the values were obtained:
[1] = test system: male C57BL/6 mice; assay: Comparative grip strength testing for ursolic acid and salts thereof (standard chow, 6 weeks); assay type: in vivo
Description: Weight-matched cohorts of 8-week old male C57BL/6 mice were randomized to receive ad libitum access to either standard chow (control) or standard chow supplemented with either 0.050% ursolic acid, 0.200% ursolic acid, or one of the indicated ursolic acid salts: ursolic acid-ethanolamine salt; ursolic acid-tris(hydroxymethyl)aminomethane salt, hereinafter referred to as ursolic acid-“tris” salt; ursolic acid-lysine salt; ursolic acid-diethanolamine salt; ursolic acid-morpholine salt; or ursolic acid-piperazine salt. The ursolic acid-diethanolamine salt and ursolic acid-morpholine salt were prepared as described above. Ursolic acid was commercially obtained, and was used as a starting material to make the other ursolic acid salts according to techniques analogous to those above and known in the art. The doses of ursolic acid salts were molar-matched to either 0.050% ursolic acid (i.e. 0.057% ursolic acid-ethanolamine salt, 0.063% ursolic acid-tris salt, 0.066% ursolic acid-lysine salt, 0.059% ursolic acid-morpholine salt, and 0.059% ursolic acid-piperazine salt) or to 0.048% ursolic acid (i.e. 0.060% ursolic acid-diethanolamine salt). After mice had consumed these diets for 6 weeks, in vivo grip strength was measured.

[2] = test system: male C57BL/6 mice; settings: 0.059% in standard chow, 7 weeks
Method: Weight-matched cohorts of 8-week old male C57BL/6 mice were randomized to receive ad libitum access to either standard chow (control) or standard chow supplemented with 0.059% ursolic acid-morpholine salt. After mice had consumed these diets for 7 weeks, in vivo, grip strength was measured, mice were weighed, body composition was assessed by NMR, and quadriceps muscles were dissected for histological analysis of skeletal muscle fiber cross-sectional diameter.

[3] = test system: male C57BL/6 mice; settings: quadriceps, 0.059% in standard chow, 7 weeks, vs control
Description: (§1) Weight-matched cohorts of 8-week old male C57BL/6 mice were randomized to receive ad libitum access to either standard chow (control) or standard chow supplemented with 0.059% ursolic acid-morpholine salt. After mice had consumed these diets for 7 weeks, quadriceps muscles were dissected, fixed, cross-sectioned, stained with hematoxylin and eosin, and subjected to photomicrography. FIG. 1A is a photomicrograph of quadriceps skeletal muscle fibers from the control group. FIG. 1B is a photomicrograph of quadriceps skeletal muscle fibers from the ursolic acid-morpholine salt group.

[4] = test system: male C57BL/6 mice; settings: retroperitoneal fat pads, 0.059% in standard chow, 7 weeks, vs control
Description: as §1, with “retroperitoneal fat pads” for “quadriceps muscles”, “2A” for “1A”, “adipocytes from retroperitoneal fat pads” for “quadriceps skeletal muscle fibers”, “2B” for “1B”

[5] = test system: diet-induced obese mice; assay: Obesity and blood glucose testing (high-fat chow, 9 weeks); assay type: in vivo; settings: 0.059% in high-fat chow
Description: Weight-matched cohorts of 8-week old male C57BL/6 mice were randomized to receive ad libitum access to either high-fat chow (control) or high-fat chow supplemented with 0.059% ursolic acid-morpholine salt. Just prior to starting these diets, mice were weighed and subjected to body composition analysis by NMR. After mice had consumed the diets for 9 weeks, body weight and body composition were re-assessed, retroperitoneal and epididymal fat pads were dissected and weighed, and non-fasting blood glucose was measured.

[6] = test system: male C57BL/6 mice; settings: 0.059% in high-fat chow, 8 weeks, 6 h fast; control 37,122±1,339; P<0.01
Method: Weight-matched cohorts of 8-week old male C57BL/6 mice were randomized to receive ad libitum access to either high-fat chow (control) or high-fat chow supplemented with 0.059% ursolic acid-morpholine salt. After mice had consumed the diets for 8 weeks, mice were fasted for 6 hours and then subjected to glucose tolerance testing. Results are shown in FIG. 3, which is a graph depicting glucose tolerance testing results. Data are means±SEM from 15 mice per cohort.

[7] = test system: male C57BL/6 mice; assay: Direct comparison to molar-matched ursolic acid in obesity-induced glucose intolerance (high-fat chow, 7 weeks); assay type: in vivo; settings: 6 h fast, 0.050% ursolic acid or 0.059% morpholine salt, P<0.01
Method: Weight-matched cohorts of 8-week old male C57BL/6 mice were randomized to receive ad libitum access to either high-fat chow supplemented with 0.050% ursolic acid, or high-fat chow supplemented with a molar-matched dose of ursolic acid-morpholine salt (0.059%). After mice had consumed the diets for 7 weeks, mice were fasted for 6 hours and then subjected to glucose tolerance testing. […] Data are means±SEM from 10 mice per cohort.

[8] = test system: male C57BL/6 mice; assay: Comparison with a maximally effective dose of ursolic acid (high-fat diet, 7 weeks, glucose tolerance test); assay type: in vivo; settings: 0.059% morpholine salt vs 0.20% w/w ursolic acid
Method: After 7 weeks on the diets, mice were fasted for 6 hours and were then subjected to glucose tolerance tests.

[9] = test system: C2C12 myotubes; assay: Total cellular protein in cultured C2C12 myotubes (in vitro model of skeletal muscle); assay type: cell-based; settings: 48 hours, 10% FBS
Method: A direct, side-by-side comparison of ursolic acid and ursolic acid-morpholine salt was performed in an in vitro model of skeletal muscle. C2C12 myoblasts were cultured and fully differentiated into post-mitotic skeletal myotubes, then incubated for 48 hours with 10% fetal bovine serum (FBS) plus the indicated concentrations of ursolic acid or ursolic acid-morpholine salt. Myotubes were then harvested for assessment of total cellular protein, which increases as myotubes undergo hypertrophy. (See Dyle et al., Systems-based discovery of tomatidine as a natural small molecule inhibitor of skeletal muscle atrophy, Journal of Biological Chemistry 289, (2014) 14913-14924.) Total protein in each sample was normalized to the amount of in vehicle-treated myotubes. […] Results are shown in FIG. 6, which is a graph depicting results from the direct, side-by-side comparison of ursolic acid and ursolic acid-morpholine salt in the cultured C2C12 myotubes in vitro model of skeletal muscle.

[10] = test system: male C57BL/6 mice; settings: high-fat chow, 8 weeks, 0.500% Ursolic Acid or 0.059% morpholine salt
Description: Weight-matched cohorts of 8-week old male C57BL/6 mice were randomized to receive ad libitum access to either high-fat chow (control), high-fat chow supplemented with 0.050% ursolic acid, or high-fat chow supplemented with a molar-matched dose of ursolic acid-morpholine salt (0.059%). Just prior to starting these diets, mice were weighed and subjected to body composition analysis by NMR. After mice had consumed the diets for 8 weeks, body weight and body composition were re-assessed, retroperitoneal and epididymal fat pads were dissected and weighed, and skeletal muscles (tibialis anterior, gastrocnemius, soleus, quadriceps and triceps) were dissected and weighed. In each mouse, the total dissected skeletal muscle weight (combined weight of bilateral tibialis anterior, gastrocnemius, soleus, quadriceps and triceps muscles) was normalized to the final body weight. Data are means±SEM from 10 mice per cohort.

Compound: C[C@H]1[C@H](C)CC[C@]2(C(=O)O)CC[C@]3(C)C(=CC[C@@H]4[C@@]5(C)CC[C@H](O)C(C)(C)[C@@H]5CC[C@]43C)[C@H]12 [Ursolic Acid-Morpholine Salt, ursolic acid morpholine salt]
- Potency and efficacy compared with native ursolic acid and other ursolic acid salts ([1]; conclusion from Table I grip strength data): more potent and efficacious
- Grip Strength (% Change vs. Control) ([1]; standard chow supplemented, 6 weeks, doses molar-matched to 0.050% ursolic acid (0.048% for diethanolamine salt): 0.050% ursolic acid, 0.057% ethanolamine, 0.063% tris, 0.066% lysine, 0.060% diethanolamine, 0.059% morpholine, 0.059% piperazine salt, mean ± SEM, 12 mice): 11.3 ± 2.1 %
- Final Body Wt [2]: 34.6 ± 1.0 g
- Final Grip Strength [2]: 181.9 ± 2.4 g
- Final % Fat ([2]; NMR): 21.4 ± 2.9 %
- Final % Lean ([2]; NMR): 61.0 ± 2.2 %
- Final Fat Mass ([2]; NMR): 7.8 ± 1.2 g
- Final Lean Mass ([2]; NMR): 20.8 ± 0.3 g
- Skeletal muscle hypertrophy ([2]; conclusion from Table II): stimulated skeletal muscle hypertrophy
- Muscle fiber diameter ([2]; quadriceps, >4200 fibers per diet): 44.8 ± 0.2 μm
- Skeletal muscle fiber size (FIGS. 1A and 1B) [3]: increased skeletal muscle fiber size
- Adipocyte size (FIGS. 2A and 2B) [4]: decreased adipocyte size
- Epididymal Fat Pad Wt [5]: 1804.0 ± 161.5 mg
- Final % Fat [5]: 31.8 ± 3.1 %
- Final % Lean [5]: 55.3 ± 2.4 %
- Final Body Wt [5]: 38.9 ± 1.2 g
- Final Fat Mass [5]: 12.8 ± 1.4 g
- Final Lean Mass [5]: 21.3 ± 0.6 g
- Retroperitoneal Fat Pad Wt [5]: 731.8 ± 86.9 mg
- Obesity in diet-induced obese mice ([5]; conclusion from Table III): reduced obesity
- Blood Glucose ([5]; non-fasting): 177.7 ± 9.9 mg/dL
- Glucose tolerance test area under the curve (AUC) [6]: 31,383±1,869
- Fasting blood glucose [7]: 140.6 ± 7.8 mg/dL
- Glucose tolerance test area under the curve (AUC) [7]: 32,606±2,471
- Glucose tolerance test AUC relative to ursolic acid (FIG. 5) ([8]; 7 weeks, 6 h fast, P<0.05): significantly lower
- Grip strength relative to ursolic acid ([8]; P=0.05): significantly improved
- Efficacy relative to ursolic acid (total cellular protein) [9]: 3 fold
- Potency relative to ursolic acid (total cellular protein) [9]: 3 fold
- Total cellular protein (FIG. 6) ([9]; normalized to vehicle-treated, dose-dependent): significantly increased
- Epididymal Fat Pad Wt [10]: 1713.8 ± 139.8 ^b mg
- Final % Fat [10]: 31.4 ± 2.8 ^b %
- Final % Lean [10]: 57.3 ± 2.1 ^b %
- Final Body Wt [10]: 36.6 ± 0.9 ^b g
- Final Fat Mass [10]: 11.6 ± 1.2 ^b g
- Final Lean Mass [10]: 20.9 ± 0.7 ^a g
- Retroperitoneal Fat Pad Wt [10]: 709.8 ± 72.2 ^b mg
- Skeletal Muscle Wt (mg/g Final Body Wt) ([10]; total dissected muscle weight normalized to final body weight): 29.1 ± 1.0 ^b mg/g Final Body Wt
